Measurements: patent publication US20120172302A1, “COMPOSITION FOR THE TREATMENT OF BENIGN PROSTATE HYPERPLASIA” (priority 2009, published 2012)
Square brackets hold non-standard residues; d marks the D form. Peptide text beside a SMILES is read from it. * marks the point of attachment. dPhe(4-NHCONH2) = NC(=O)Nc1ccc(C[C@@H](N)C(=O)O)cc1; Dihydroorotyl(S) = O=C1C[C@@H](C(=O)*)NC(=O)N1; dPhe(4-Cl) = N[C@H](Cc1ccc(Cl)cc1)C(=O)O; Phe(4-NH2) = Nc1ccc(C[C@H](N)C(=O)O)cc1; d2Nal = N[C@H](Cc1ccc2ccccc2c1)C(=O)O; Lys(iPr) = CC(C)NCCCC[C@H](N)C(=O)O; d3Pal = N[C@H](Cc1cccnc1)C(=O)O

System: patients with BPH
Test: International Prostate Symptom Score (IPSS) questionnaire, clinical trial in BPH patients
Type: in vivo, men
Details: for Improvements in mean sum of IPSS scores: 9 and 12 months follow-up
Method: For each patient, the following parameters were measured or assessed (using the methods discussed below), at time points of screening (e.g. −7 days) day 0 (“baseline”), day 14, day 28 and day 42:
After the initial 6-week treatment period of the exploratory study had been completed, a 12-month follow-up period looking at long-term efficacy commenced. Interim data of the main efficacy variables (IPSS, IPSS Global QoL, prostate volume, urinary flow, and post-void residual volume—measured as set out below) after 6 months' follow-up are also presented herein Table 1, 2, 3 FIG. 1b), together with some IPSS data at 9 and 12 months (FIG. 1b).
The IPSS was developed in 1991 by the American Urological Association to assess the severity of urinary symptoms related to BPH (Barry, M. J., et al., The American Urological Association symptom index for benign prostatic hyperplasia. The Measurement Committee of the American Urological Association. J Urol, 1992. 148(5): p. 1549-57; discussion 1564). It has been widely used in clinical studies, has undergone extensive validation and its psychometric properties are well documented in both the original version (containing a 1-month recall) as well as the ‘acute’ version used in this study (containing a one-week recall). The WHO has recommended the use of this instrument for the evaluation of BPH and it is considered to be the internationally accepted, standard questionnaire for assessing lower urinary tract symptoms.
The patients were asked to complete the IPSS questionnaire to evaluate their urinary symptoms. The IPSS is a patient-administered questionnaire containing seven items to evaluate symptoms of urinary obstruction (incomplete emptying, frequency, hesitancy, urgency, weak stream, straining, nocturia) over the preceding week. Each urinary symptom question is assigned points from 0 to 5 indicating increasing severity of the particular symptom. The total score can therefore range from 0 to 35 (0-7: mildly symptomatic; 8-19: moderately symptomatic; 20-35: severely symptomatic). A reduction in score over the treatment is indicative of improvement.

[1] = Day 42, all treatment groups combined
[2] = Month 6 follow up, 32 mg group, n=7
[3] = Month 6 follow up, 64 mg group, n=4
[4] = Month 6 follow up, 16+16 mg group, n=6

For `CC(=O)N[C@H](Cc1ccc2ccccc2c1)C(=O)N[C@H](Cc1ccc(Cl)cc1)C(=O)N[C@H](Cc1cccnc1)C(=O)N[C@@H](CO)C(=O)N[C@@H](Cc1ccc(NC(=O)[C@@H]2CC(=O)NC(=O)N2)cc1)C(=O)N[C@H](Cc1ccc(NC(N)=O)cc1)C(=O)N[C@@H](CC(C)C)C(=O)N[C@@H](CCCCNC(C)C)C(=O)N1CCC[C@H]1C(=O)N[C@H](C)C(N)=O` [Degarelix, D-Alaninamide, N-acetyl-3-(2-naphthalenyl)-D-alanyl-4-chloro-D-phenylalanyl-3-(3-pyridinyl)-D-alanyl-L-seryl-4-[[[(4S)-hexahydro-2,6-dioxo-4-pyrimidinyl]carbonyl]amino]-L-phenylalanyl-4-[(aminocarbonyl)amino]-D-phenylalanyl-L leucyl-N6-(1-methylethyl)-L-lysyl-L-prolyl] (Ac-[d2Nal][dPhe(4-Cl)][d3Pal]S[Phe(4-NH2)](Dihydroorotyl(S))[dPhe(4-NHCONH2)]L[Lys(iPr)]P[dA]-NH2), the “IPSS Q1 (incomplete emptying), Q2 (frequency), Q4 (urgency) score, change from baseline” value (32 mg dose, 28 and 42 day timepoints (FIG. 1c)) was “pronounced effect”, the “Improvements in mean sum of IPSS scores” value (32 mg group (FIG. 1b)) was “still indicated” and the “Improvements in mean sum of IPSS scores” value (32+32 mg group (FIG. 1b)) was “still indicated”. The “Mean IPSS score” value (Baseline of 6 month follow up patients, 32 mg group, n=7) was 22.0 (n = 7), the “Mean IPSS score” value (Baseline of 6 month follow up patients, 64 mg group, n=4) was 20.0 (n = 4) and the “Mean IPSS score” value (Baseline of 6 month follow up patients, 16+16 mg group, n=6) was 18.8 (n = 6). For the same molecule, the “Mean IPSS score” value (Baseline of 6 month follow up patients, 32+32 mg group, n=7) was 19.3 (n = 7), the “Mean IPSS score” value (Baseline, 32 mg group (one s.c. injection Day 0), N=12) was 22.3 (6.5) and the “Mean IPSS score” value (Baseline, 64 mg group (one s.c. injection Day 0), N=13) was 21.8 (6.2). The “Mean IPSS score” value (Baseline, 16+16 mg group (16 mg s.c. Day 0 and Day 14), N=13) was 17.7 (4.5), the “Mean IPSS score” value (Baseline, 32+32 mg group (32 mg s.c. Day 0 and Day 14), N=12) was 18.2 (5.4) and the “IPSS mean change from baseline” value (Day 14, 32 mg group) was −7.8 (8.7). For the same molecule, the “IPSS mean change from baseline” value (Day 14, 64 mg group) was −8.0 (4.0), the “IPSS mean change from baseline” value (Day 14, 16+16 mg group) was −3.2 (5.4) and the “IPSS mean change from baseline” value (Day 14, 32+32 mg group) was −5.5 (5.0). For the same molecule, the “IPSS mean change from baseline” value (Day 42, 32 mg group) was −13.2 (6.6), the “Mean IPSS score” value (Day 42, 32 mg group) was 9.1 (6.2) and the “Number of patients in IPSS category "severe"” value (Day 42, 32 mg group) was 1 patients. The “Percentage responders (decrease in IPSS of at least 30% vs baseline)” value (Day 42, 32 mg group) was 92%, the “IPSS mean change from baseline” value (Day 42, 64 mg group) was −10.0 (5.0) and the “Mean IPSS score” value (Day 42, 64 mg group) was 11.8 (5.9). For the same molecule, the “Number of patients in IPSS category "severe"” value (Day 42, 64 mg group) was 1 patients, the “Percentage responders (decrease in IPSS of at least 30% vs baseline)” value (Day 42, 64 mg group) was 85% and the “IPSS mean change from baseline” value (Day 42, 64 mg group, listed as degarelix) was −10.0 (SD=5.0). The “IPSS mean change from baseline” value (Day 42, 16+16 mg group) was −6.1 (4.6), the “Mean IPSS score” value (Day 42, 16+16 mg group) was 11.6 (4.5) and the “Percentage responders (decrease in IPSS of at least 30% vs baseline)” value (Day 42, 16+16 mg group) was 54%. The “IPSS mean change from baseline” value (Day 42, 16+16 mg group, listed as degarelix) was −6.1 (SD=4.6), the “IPSS mean change from baseline” value (Day 42, 32+32 mg group) was −9.6 (4.7) and the “Mean IPSS score” value (Day 42, 32+32 mg group) was 8.6 (5.7). For the same molecule, the “Percentage responders (decrease in IPSS of at least 30% vs baseline)” value (Day 42, 32+32 mg group) was 83%, the “IPSS mean change from baseline” value (Day 42, 32+32 mg group, listed as degarelix) was −9.6 (SD=4.7) and the “Number of patients in IPSS category "mild"” value [1] was 17 patients. For the same molecule, the “Number of patients in IPSS category "moderate"” value [1] was 31 patients, the “Number of patients in IPSS category "severe"” value [1] was 2 patients and the “IPSS mean change from baseline” value [2] was −11.6 (8.3). For the same molecule, the “Mean IPSS score” value [2] was 10.4 (6.3), the “Percentage responders (decrease in IPSS of at least 30% vs baseline)” value [2] was 86% and the “IPSS mean change from baseline” value [3] was −4.0 (3.6). The “Mean IPSS score” value [3] was 16.0 (8.7), the “Percentage responders (decrease in IPSS of at least 30% vs baseline)” value [3] was 5% and the “IPSS mean change from baseline” value [4] was −2.5 (4.3). For the same molecule, the “Mean IPSS score” value [4] was 16.3 (4.7), the “Percentage responders (decrease in IPSS of at least 30% vs baseline)” value [4] was 33% and the “IPSS mean change from baseline” value (Month 6 follow up, 32+32 mg group, n=7) was −12.6 (9.6).
